Reference: paper PMC6337391 (Molecules, 2019)

Assays:
[1] = Inhibition of linoleic acid lipid peroxidation (AAPH)
From the text: The water soluble 2,2′-azobis(2-amidinopropane) hydrochloride (AAPH) generates in vitro free radicals through spontaneous thermal decomposition. […] Overall, chalcones a, b, and c present anti-lipid peroxidation activity. […] The inhibiting activities for the rest b chalcones ranged from 15–44%. The intermediate ethers are moderate inhibitors. […] This might be correlated with the presence of the double C=C–COCH3 group. […] Both have a long ether chain in their structure.
In an aqueous solution spectrophotometrically at 234 nm the production of conjugated diene hydro peroxide by oxidation of sodium linoleate was monitored and recorded according to our previous published experimental conditions, using 10 µL of the 16 mM sodium linoleate solution added to the UV cuvette containing 930 μL of 0.05 M phosphate buffer, pH 7.4 pre-thermostated at 37 °C, under air by the addition of 50 μL of 40 mM AAPH solution, which was used as a free radical initiator. Ten microliters (10 μL) of the appropriate solutions of the tested compounds were added in the mixture, whereas same level of DMSO was used as a blank for the measurement of lipid oxidation. The rate of oxidation at 37 °C was monitored by recording the increase in absorption at 234 nm caused by conjugated diene hydro peroxides.

[2] = Reducing activity with the stable radical DPPH
Protocol: The chalcones were studied for the antioxidant activity (reducing activity RA%) by the use of the stable free radical 2,2-diphenyl-1-picrylhydrazyl radical (DPPH) at concentrations 0.05 mM after 20 and 60 min (Table 2). In this procedure, the dominant chemical reaction involved is the reduction of the DPPH radical by single electron transfer from the antioxidant. […] For the sake of comparison, we measured the RA% values for the intermediate double ethers d which were included in the Table 2.
To a solution of DPPH (final concentration 0.05 mM) in absolute ethanol an equal volume of the compounds solution in DMSO (stock solution 10 mM) dissolved in ethanol was added. Absolute ethanol was used as a control. The concentrations of the solutions of the compounds were 0.05 and 0.1 mM. The absorbance was recorded at 517 nm at room temperature after 20 and 60 min [29] (Table 2).

[3] = ABTS•+ decolorization assay
Protocol: The decolorization assay is used to evaluate the antioxidant activity. The ABTS^•+ cationic radical is derived from the direct oxidation of ABTS by potassium persulfate. No involvement of an intermediary radical is observed. The addition of electron-donating antioxidants reduce ABTS^•+.
Stock solutions of the tested compounds in DMSO (10 mM) were diluted. […] aliquots of each sample were added into the ABTS·^+ solution and the absorbance was recorded at room temperature. Trolox was used as a standard.

soybean lipoxygenase = molecular target: T1, soybean lipoxygenase (Glycine max, UniProt P08170); experiment: biochemical; assay type: biochemical; conditions: soybean LOX, 100 μM
T1 sequence (P08170 1-839): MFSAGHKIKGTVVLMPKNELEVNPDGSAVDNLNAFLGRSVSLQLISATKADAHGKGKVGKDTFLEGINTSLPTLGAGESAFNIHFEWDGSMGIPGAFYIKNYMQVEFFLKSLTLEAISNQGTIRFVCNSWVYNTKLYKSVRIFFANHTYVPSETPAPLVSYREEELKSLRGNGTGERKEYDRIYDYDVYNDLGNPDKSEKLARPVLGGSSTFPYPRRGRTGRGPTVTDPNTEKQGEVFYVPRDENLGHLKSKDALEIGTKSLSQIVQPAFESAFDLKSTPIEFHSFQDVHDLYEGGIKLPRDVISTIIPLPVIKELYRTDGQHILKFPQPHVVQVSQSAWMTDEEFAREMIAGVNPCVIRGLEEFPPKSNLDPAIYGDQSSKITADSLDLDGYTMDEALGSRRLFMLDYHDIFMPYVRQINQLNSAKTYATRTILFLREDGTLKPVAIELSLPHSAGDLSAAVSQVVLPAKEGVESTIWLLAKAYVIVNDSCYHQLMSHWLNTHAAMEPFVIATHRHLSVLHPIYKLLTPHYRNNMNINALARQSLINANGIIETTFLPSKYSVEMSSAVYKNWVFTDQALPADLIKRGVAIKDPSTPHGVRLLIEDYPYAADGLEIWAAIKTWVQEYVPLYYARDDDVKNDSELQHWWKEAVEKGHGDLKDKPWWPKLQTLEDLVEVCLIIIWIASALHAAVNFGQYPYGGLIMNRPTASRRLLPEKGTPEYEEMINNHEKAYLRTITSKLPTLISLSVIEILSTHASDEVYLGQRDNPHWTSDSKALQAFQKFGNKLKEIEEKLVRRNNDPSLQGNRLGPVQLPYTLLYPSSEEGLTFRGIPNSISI
From the text: In our experiments we used soybean lipoxygenase. Designing agents to modulate activities of the variety of so closely homologous enzymes, such as different LOXs, require an intimate knowledge of their 3D structures, as well as information about metabolism of the potential xenobiotics. […] Due to lack of sufficiently-purified human enzymes most of the research has been done on soybean LOX [52, 53]. Although this enzyme is not identical to the mammalian one, it seems that there is a sufficient qualitative correlation between values for enzyme inhibition with the two enzymes.
In vitro study was evaluated as reported previously. The tested compounds as stock solutions were dissolved in DMSO. Ten microliters (10 μL) were incubated at room temperature with sodium linoleate ([…]) and 0.2 mL of enzyme solution (1/9 × 10^−4 w/v in saline) in buffer pH 9 (tris) at room temperature (final volume 1 mL). […] Several concentrations were used for the determination of IC50 values.

[4] = Lipophilicity as RM values by RP-TLC; assay type: physicochemical; set-up: key: RM = log[(1/Rf) − 1]; conditions: methanol/water 70/30, SD < 10%
From the text: It is well-documented and discussed in the literature that lipophilicity is a very significant physicochemical property which may critically affect distribution, bioavailability, metabolic activity and elimination, all the useful characteristics for the kinetics of biologically active compounds. Thus, we attempted to determine experimentally the lipophilicity of the synthesized compounds from the RPTLC method as RM values. The method is considered to be a reliable, fast and convenient method for expressing lipophilicity. Moreover, many calculated methods were used in order to predict the logP value.
Reversed phase TLC (RP-TLC) was performed on silica gel plates impregnated with 5% (v/v) liquid paraffin in light petroleum ether. The mobile phase was a methanol/water mixture (70/30, v/v). The plates were developed in closed chromatography tanks saturated with the mobile phase at 24 °C. Spots were detected under UV light. Five individual measurements of Rf values were recorded and used for the determination of RM using the equation RM = log [(1/Rf) − 1]. (Table 3).

[5] = tested on: L929 mouse fibroblasts cells; experiment: Cytotoxicity, propidium iodide fluorescence method; assay type: cell-based; conditions: 24-h incubation
Protocol: The cytotoxicity of the synthesized derivatives against L929 mouse fibroblasts cells was determined using the propidium iodide (PI) fluorescence method in the presence of different concentrations (1–100 μM) of these compounds. The results are presented in Table 4 in the form of the % cell survival values as PI% for the examined compounds. […] Chalcones c7, c8, c11, and c12 follow.
L929 mouse fibroblasts cells were cultured in EMEM supplemented with 10% horse serum, 2 mM L-glutamine, 1 mM sodium pyruvate, 0.1 mM nonessential amino acids, 1.5 g/L sodium bicarbonate, and 100 μg/mL penicillin–streptomycin at 37 °C in a humidified atmosphere with 5% CO2. L929 cells were plated into 24-well plates at a density […] and allowed to attach and grow for 24 h. The supernatant in each well then replaced with medium containing various concentrations (1, 10, 20, 50 and 100 μM) of compounds a5–12, c5–12, di, and dii–dvi, which presented the more interesting results in the in vitro experiments. After 24-h incubation, the supernatant was removed and the cells were washed with PBS. The cells were detached with 0.25% trypsin, transferred to FACS tubes, and then centrifuged (1600 rpm for 5 min) and the pellet washed with PBS. After washing, the cells in the pellet were incubated with 5 μL propidium iodide (PI) solution (1 mg/mL) for 1 min. The PI fluorescence (cell death) was determined with flow cytometry, FACS Calibur, Coulter Epics XL-MCL (Beckman, Inc., Mount Holly, NJ, USA). The analysis of flow cytometry data was performed with the WinMDI analysis program (Table 4).

| Compound | AAPH% @ 100 μM (anti-lipid peroxidation) [1] | RA% 100 μM 20 min [2] | RA% 100 μM 60 min [2] | ABTS•+ Inhb. % @ 100 μM [3] | % LOX Inhb. @ 100 μM (soybean lipoxygenase) | RM [4] | 1 μM Average (% pi) ± σ [5] | 10 μM Average (% pi) ± σ [5] | 20 μM Average (% pi) ± σ [5] | 50 μM Average (% pi) ± σ [5] | 100 μM Average (% pi) ± σ [5] |
| --- | --- | --- | --- | --- | --- | --- | --- | --- | --- | --- | --- |
| CN(C)c1ccc(/C=C/C=C/C(=O)c2ccc(OCCCCOc3ccc(C(=O)/C=C/C=C/c4ccc(N(C)C)cc4)cc3)cc2)cc1 [eiii, (2E,2′E,4E,4′E)-1,1′-((butane-1,4-diylbis(oxy))bis(4,1-phenylene))bis(5-(4-(dimethylamino)phenyl)penta-2,4-dien-1-one)] | 47% | No | no | No | 27% | −0.07 |  |  |  |  |  |
| CC(=O)c1ccc(OCCCCCCCCOc2ccc(C(C)=O)cc2)cc1 [dvii, 1,1′-((octane-1,8-diylbis(oxy))bis-(4,1-phenylene))diethanone] | 27% |  |  | No | 5% | −0.36 |  |  |  |  |  |
| CN(C)c1ccc(/C=C/C=C/C(=O)c2ccc(OCCCCCCCCOc3ccc(C(=O)/C=C/C=C/c4ccc(N(C)C)cc4)cc3)cc2)cc1 [evii, (2E,2′E,4E,4′E)-1,1′-((octane-1,8-diylbis(oxy))bis(4,1-phenylene))bis(5-(4-(dimethylamino)phenyl)penta-2,4-dien-1-one)] | 6% | No | no | 88% | 12% |  |  |  |  |  |  |
| CC(Cc1ccc(O)c(O)c1)C(C)Cc1ccc(O)c(O)c1 (centres unmarked) [NDGA, Nordihydroguaiaretic acid, reference compound] |  | 81% | 83% |  |  |  |  |  |  |  |  |
| CC(=O)c1ccc(OCCCCCCOc2ccc(C(C)=O)cc2)cc1 [dv, 1,1′-((hexane-1,6-diylbis(oxy))bis(4,1-phenylene))diethanone] | 18% |  |  | No | 7% | −0.53 | 4.47 ± 0.59% | 6.83 ± 2.46% | 8.05 ± 3.58% | 9.69 ± 0.57% | 9.69 ± 0.57% |
| Nc1c2c(nc3ccccc13)CCCC2 [Tacrine, reference compound] |  |  |  | 88% |  |  |  |  |  |  |  |
| CC(=O)c1ccc(OCCCCCOc2ccc(C(C)=O)cc2)cc1 [div, 1,1′-((pentane-1,5-diylbis(oxy))bis(4,1-phenylene))diethanone] | 30% |  |  | No | 17% | 0.23 | 4.89 ± 0.51% | 8.56 ± 3.97% | 11.86 ± 2.98% | 17.05 ± 1.46% | 17.05 ±1.46% |
| CN(C)c1ccc(/C=C/C=C/C(=O)c2ccc(OCCCCCCOc3ccc(C(=O)/C=C/C=C/c4ccc(N(C)C)cc4)cc3)cc2)cc1 [ev, (2E,2′E,4E,4′E)-1,1′-((hexane-1,6-diylbis(oxy))bis(4,1-phenylene))bis(5-(4-(dimethylamino)phenyl)penta-2,4-dien-1-one)] | 14% | No | no | 25% | 7% |  |  |  |  |  |  |
| CC(=O)c1ccc(OCCCCOc2ccc(C(C)=O)cc2)cc1 [diii, 1,1′-((butane-1,4-diylbis(oxy))bis(4,1-phenylene))diethanone] | 29% |  |  | No | 41% | −0.37 | 14.06 ± 1.36% | 20 ± 3.12% | 20.76 ± 3.51% | 32.14 ± 6.99% | 32.14 ± 6.99% |
